# US20260115331A1, “PET IMAGING OF BACTERIAL INFECTION WITH A PET PROBE” (Mayo Foundation for Medical Education and Research, priority 2022, published 2026)
# Legend:
# [1] = PET image analysis (SUV) of inflamed tibia in foreign body inflammation rat model; format: in vivo, rats; settings: each time point up to 120 minutes (FIG. 27)
# Procedure: (§1) The PET probe [^68Ga]Ga-H3P2O8 was evaluated in methicillin-resistant S. aureus (MRSA) foreign-body osteomyelitis in the left tibia with a stainless steel Kirschner wire (K-wire) implant in male Wister rats, following a previously established protocol [Ref. 17]. Briefly, a 1 cm incision was made on the medial tibia and the bone exposed. A 1.5 mm hole was drilled, 0.01 mL of arachidonic acid (a sclerosing agent) and 0.05 mL of a suspension containing MRSA DRL-6169 at 10^8 cfu/mL was injected into the bone. A 5 mm threaded stainless-steel K-wire was inserted. The hole was closed with dental gypsum and the site closed. After implantation, the muscle and fascia were closed with 3-0 vicryl using simple interrupted sutures. The skin was closed with sterile wound clips and VetBond. The wound was sprayed with Aluspray and Chew Guard. After 7 days of implantation of wire, the animal was put on iron-deficient diet for 7 days and on the day of imaging, the animals were fasted for 4 hours prior to the injection of the PET probe. [^68Ga]Ga-H3P2O8 (32.81±6.28 MBq, n=18) were injected into the rat model via tail vein injection. The rat model was either a normal rat model or an osteomyelitis foreign body rat model or an inflamed foreign body rat model. PET/CT images were acquired at 15 minutes, 30 minutes, 60 minutes, and 120 minutes post-injection using Siemens Inveon MicroPET/CT Scanner (see FIGS. 17, 18, and Table 2).
# To assess the preferential uptake of novel [^68Ga]Ga-H3P2O8 PET probe in infection as compared to inflammation, the same surgery and imaging was performed but omitted the MRSA. […] The probe [^68Ga]Ga-H3P2O8 was also successfully used to detect thigh infection caused by E coli in a mouse model.
# To further investigate the selectivity of [^68Ga]Ga-H3P2O8 for imaging infection over inflammation, this novel probe was compared to other PET imaging probes, [^68Ga]Ga-Citrate and [^18F]FDG in an inflammation model. In a side-by-side study, all three probes were used to image inflammation (i.e., an inflamed tibia) in an osteomyelitis foreign body rat model.
# [2] = PET/CT image analysis (SUV) in normal rat model; format: in vivo, rats; settings: for SUV (Average ± SD), Normal Tibia: Normal group
# Procedure: as §1
# (§2) The acquired PET images were visualized and analyzed for quantifying standardized uptake value (SUV) using image analysis software—MIM 7 software and PMOD. Following final imaging at 120 minutes post-injection, the animal was euthanized, and major organs and infected and inflamed tibia were extracted for gamma counting for ex-vivo biodistribution analysis (see FIG. 22). At the end of last imaging session, rats were euthanized by cardiectomy, and the operated tibia with K-wire or contralateral tibia were aseptically removed. Following removal, tibias were weighed, and Ga-68 radioactivity was counted in 2480 Wizard2 automatic gamma counter for ex-vivo biodistribution assessment. The tibias were then frozen to −80° C. The frozen tibia from each animal was crushed aseptically using a bone pulverizer chilled at −80° C. The crushed tibia without K wire was weighed and vortexed in 1 mL sterile saline. The K wire was also vortexed in 1.0 mL sterile saline separately. The vortexed tibia and K-wire saline suspension were sonicated for 5 minutes. After sonication, 1:10 serial dilutions were prepared in saline and 0.1 mL of each dilution was plated in Trypticase Soy Agar plates with 5% Sheep Blood (TSA II). After 24 hours of incubation at 37° C., the bacterial cultures in tibia suspension and K-wire suspension were quantified. In the 2-week-old osteomyelitis model used in the study, the infected tibia contained 7.00±0.19 log10 cfu/g tibia (n=10) and 5.41±0.40 log10 cfu/K-wire (n=10).
# E coli = test: Biodistribution in thigh infected mice (E. coli) at 120 min post injection; format: in vivo; settings: n = 4, 2 h post infection with E coli
# Description: The feasibility of the developed PET probe [^68Ga]Ga-H3P2O8 in a mouse model of thigh infection as well as uptake in E. coli has been evaluated. […] The biodistribution of developed PET probe in normal and in thigh infected mice has been assessed (see FIG. 11). […] Micro-PET imaging of normal and thigh-infected mice has also been performed. The site of bacterial infection was evident on micro-PET images (see FIG. 13) with arrows in contrast to the non-infected group of mice. The bacterial site of infection on micro-PET images was confirmed by bacterial culture performed on the biopsied sample. Micro-PET imaging was performed at different time intervals to optimize imaging time.
# [3] = tested on: Pseudomonas aeruginosa (P. aeruginosa); test: Ex vivo biodistribution in osteomyelitis foreign body rat model with P. aeruginosa infection vs inflammation model; design: species or system rats; settings: 120 minutes post-injection, comparable SUVs except bladder and feces (FIG. 35)
# Procedure: as §2, with “In the 2-week-old osteomyelitis model used in the study, the infected tibia contained 7.00±0.19 log10 cfu/g tibia (n=10) and 5.41±0.40 log10 cfu/K-wire (n=10).” left out
# [4] = tested on: Methicillin-resistant Staphylococcus aureus (MRSA); format: in vivo, rats; settings: PET image analysis, p<0.05 (FIG. 30)
compound,measurement,setting,value
"O=P(O)(O)[O][Ga]1[O]P(=O)(O)[O]1 [[^68Ga]Ga-H3P2O8, [^68Ga]Ga-hydrogen bisphosphate]",difference in mean SUV between the probes in inflamed tibia,[1],no significant difference
same,"SUV (Average ± SD), Normal Tibia","[2]; n = 4, 15 min post-injection",0.76 ± 0.03 SUV
same,"SUV (Average ± SD), Normal Tibia","[2]; n = 4, 30 min post-injection",0.76 ± 0.09 SUV
same,"SUV (Average ± SD), Normal Tibia","[2]; n = 4, 60 min post-injection",0.80 ± 0.09 SUV
same,"SUV (Average ± SD), Normal Tibia","[2]; n = 4, 120 min post-injection",0.89 ± 0.16 SUV
same,"SUV (Average ± SD), Muscle in Normal group","[2]; n = 4, 15 min post-injection",0.35 ± 0.10 SUV
same,"SUV (Average ± SD), Muscle in Normal group","[2]; n = 4, 30 min post-injection",0.50 ± 0.12 SUV
same,"SUV (Average ± SD), Muscle in Normal group","[2]; n = 4, 60 min post-injection",0.49 ± 0.10 SUV
same,"SUV (Average ± SD), Muscle in Normal group","[2]; n = 4, 120 min post-injection",0.48 ± 0.09 SUV
same,"SUV ± STD, Adipose",E coli; Adipose,0.34 ± 0.34 SUV
same,"SUV ± STD, Bladder",E coli; Bladder,3.11 ± 3.0 SUV
same,"SUV ± STD, Blood",E coli; Blood,1.83 ± 0.20 SUV
same,"SUV ± STD, Bone",E coli; Bone,2.73 ± 1.12 SUV
same,"SUV ± STD, Brain",E coli; Brain,0.81 ± 1.5 SUV
same,"SUV ± STD, Cecum",E coli; Cecum,1.74 ± 0.55 SUV
same,"SUV ± STD, Eye",E coli; Eye,3.86 ± 1.71 SUV
same,"SUV ± STD, Feces",E coli; Feces,0.93 ± 0.43 SUV
same,"SUV ± STD, Gut",E coli; Gut,1.78 ± 0.10 SUV
same,"SUV ± STD, Heart",E coli; Heart,0.61 ± 0.14 SUV
same,"SUV ± STD, Infected Thigh",E coli; Infected Thigh,1.12 ± 0.43 SUV
same,"SUV ± STD, Kidney-1",E coli; Kidney-1,3.24 ± 1.19 SUV
same,"SUV ± STD, Kidney-2",E coli; Kidney-2,3.28 ± 2.10 SUV
same,"SUV ± STD, Liver",E coli; Liver,2.02 ± 0.89 SUV
same,"SUV ± STD, Lung-1",E coli; Lung-1,2.13 ± 0.54 SUV
same,"SUV ± STD, Lung-2",E coli; Lung-2,3.03 ± 0.53 SUV
same,"SUV ± STD, Normal Thigh",E coli; Normal Thigh,0.25 ± 0.05 SUV
same,"SUV ± STD, Skin",E coli; Skin,0.88 ± 0.63 SUV
same,"SUV ± STD, Spleen",E coli; Spleen,0.80 ± 0.69 SUV
same,"SUV ± STD, Stomach",E coli; Stomach,0.48 ± 0.14 SUV
same,distribution in organs/excrement of infected model compared with inflammation model,[3],similar
same,mean SUV for MRSA-infected animal compared with animals infected with K. pneumoniae or P. aeruginosa,[4],significantly higher
